Measurements as given in ChEMBL document CHEMBL1201862, “PubChem BioAssay data set” (2004).
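1) Cells in 96-well plates. 2) Compound, 48 h, 5 concentrations. 3) Linear interpolation between surrounding doses. 4) Unreached endpoint = highest concentration. At the GI50, growth is halved.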 Active and inactive are the calls of the source. Cut-off read from the data, not from the text of the source: active = GI50 up to about 1.1 µM and inactive = higher.

Experiments:
Experiment in all cases: NCI-60 cell line screen, 48 h
U-251 = system: U-251
TK-10 = system: TK-10
CCRF-CEM = system: CCRF-CEM
786-0 = system: 786-0
LOX IMVI = system: LOX IMVI
SF-539 = system: SF-539
RXF 393 = system: RXF 393
ACHN = system: ACHN
IGROV-1 = system: IGROV-1
SK-OV-3 = system: SK-OV-3
SW-620 = system: SW-620
HOP-62 = system: HOP-62
DLD-1 = system: DLD-1
M14 = system: M14
A498 = system: A498
HL-60 = system: HL-60
OVCAR-5 = system: OVCAR-5
MDA-MB-435 = system: MDA-MB-435
DU-145 = system: DU-145
Hs-578T = system: Hs-578T

SMILES | GI50 (U-251) | GI50 (TK-10) | GI50 (CCRF-CEM) | GI50 (786-0) | GI50 (LOX IMVI) | GI50 (SF-539) | GI50 (RXF 393) | GI50 (ACHN) | GI50 (IGROV-1) | GI50 (SK-OV-3) | GI50 (SW-620) | GI50 (HOP-62) | GI50 (DLD-1) | GI50 (M14) | GI50 (A498) | GI50 (HL-60) | GI50 (OVCAR-5) | GI50 (MDA-MB-435) | GI50 (DU-145) | GI50 (Hs-578T)
CCN(CC)C(=S)N/N=C(\C)c1ccccc1O | 16.9 µM (inactive) | 62.1 µM (inactive) | 5 µM (inactive) | 26.2 µM (inactive) | 15.5 µM (inactive) | 18 µM (inactive) | 25.6 µM (inactive) | 14.5 µM (inactive) | 24.5 µM (inactive) | 33.7 µM (inactive) | 22.9 µM (inactive) | 34.6 µM (inactive) | 17.8 µM (inactive) | 17.5 µM (inactive) | 20.5 µM (inactive) | 22.6 µM (inactive) |  |  |  | 
Cn1cnc2[nH]c(=O)[nH]c(=S)c21 | > 100 µM (inactive) | > 100 µM (inactive) | > 100 µM (inactive) | > 100 µM (inactive) |  | > 100 µM (inactive) | > 100 µM (inactive) | > 100 µM (inactive) | > 100 µM (inactive) | > 100 µM (inactive) | > 100 µM (inactive) | > 100 µM (inactive) | > 100 µM (inactive) | > 100 µM (inactive) | > 100 µM (inactive) | > 100 µM (inactive) | > 100 µM (inactive) |  |  | 
Nc1ccc(C(=O)N/C(=C\C=C\c2ccco2)c2nc3c4c(ccc3[nH]2)C(=O)c2ccccc2C4=O)cc1 | 31.3 µM (inactive) | 23.1 µM (inactive) | 1.09 µM (active) | 30.3 µM (inactive) | 25.5 µM (inactive) | 17.2 µM (inactive) | 25.2 µM (inactive) | 10.8 µM (inactive) | 21.4 µM (inactive) | 21.7 µM (inactive) | 33 µM (inactive) | 56.2 µM (inactive) | 13.3 µM (inactive) | 55 µM (inactive) | 22.4 µM (inactive) |  | > 100 µM (inactive) |  |  | 
CCCCCCCCCCCCOC(=N)N1CCOCC1 | 9.46 µM (inactive) | 16.8 µM (inactive) | 2.26 µM (inactive) | 14.1 µM (inactive) | 14.5 µM (inactive) | 0.982 µM (active) | 8.99 µM (inactive) | 14.2 µM (inactive) | 12.6 µM (inactive) | 17 µM (inactive) | 4.11 µM (inactive) | 17.3 µM (inactive) | 3.3 µM (inactive) | 3.95 µM (inactive) | 6.59 µM (inactive) | 1.55 µM (inactive) | 14.9 µM (inactive) |  |  | 
O=C1C(c2ccccc2)=C(c2ccccc2)C(c2ccc(Cc3ccc(C4=C(c5ccccc5)C(=O)C(c5ccccc5)=C4c4ccccc4)cc3)cc2)=C1c1ccccc1 | > 100 µM (inactive) | 48.6 µM (inactive) | > 100 µM (inactive) | > 100 µM (inactive) | > 100 µM (inactive) | > 100 µM (inactive) | > 100 µM (inactive) |  | > 100 µM (inactive) | > 100 µM (inactive) | > 100 µM (inactive) | > 100 µM (inactive) | > 100 µM (inactive) |  | > 100 µM (inactive) | > 100 µM (inactive) | > 100 µM (inactive) |  |  | 
COC(=O)C(=O)C(C#N)c1ccc(Cl)c(Cl)c1 (configuration not stated) | > 100 µM (inactive) | > 100 µM (inactive) | > 100 µM (inactive) | > 100 µM (inactive) | > 100 µM (inactive) | > 100 µM (inactive) |  | > 100 µM (inactive) | > 100 µM (inactive) | > 100 µM (inactive) | > 100 µM (inactive) |  | > 100 µM (inactive) | > 100 µM (inactive) |  | > 100 µM (inactive) |  |  |  | 
NC(CCCCN/C=C1/N=C(c2ccccc2)OC1=O)C(=O)O (configuration not stated) | > 100 µM (inactive) | > 100 µM (inactive) | 52 µM (inactive) | > 100 µM (inactive) | > 100 µM (inactive) | > 100 µM (inactive) | > 100 µM (inactive) | > 100 µM (inactive) | > 100 µM (inactive) | > 100 µM (inactive) | > 100 µM (inactive) | > 100 µM (inactive) | > 100 µM (inactive) | > 100 µM (inactive) | > 100 µM (inactive) | > 100 µM (inactive) | > 100 µM (inactive) |  |  | 
CC(C)c1cccc(C(C)C)c1NC(=O)C(=O)Cc1nc2ccc([N+](=O)[O-])cc2nc1O |  | > 100 µM (inactive) | 18.6 µM (inactive) | > 100 µM (inactive) | 23.2 µM (inactive) | 78.3 µM (inactive) | > 100 µM (inactive) | 54.5 µM (inactive) | > 100 µM (inactive) | > 100 µM (inactive) | 71.6 µM (inactive) |  | > 100 µM (inactive) | 28.1 µM (inactive) | 58.5 µM (inactive) | > 100 µM (inactive) | > 100 µM (inactive) |  |  | 
CN(C)CCNC(=O)c1c2ccccc2cc2ccccc12 | 41.3 µM (inactive) | 30.5 µM (inactive) | 31.1 µM (inactive) | 57 µM (inactive) | 13.5 µM (inactive) | 32.7 µM (inactive) | 25.3 µM (inactive) | 32.4 µM (inactive) | 41 µM (inactive) | > 100 µM (inactive) | 34.4 µM (inactive) | 55.7 µM (inactive) | 41.8 µM (inactive) | 16.7 µM (inactive) | 31.5 µM (inactive) | 25.4 µM (inactive) | 50.9 µM (inactive) |  |  | 
O=C(N/C(=C\c1ccc([N+](=O)[O-])cc1)c1nc2c(O)nc(S)nc2[nH]1)c1ccccc1 | > 100 µM (inactive) | > 100 µM (inactive) | 92.3 µM (inactive) | > 100 µM (inactive) |  | > 100 µM (inactive) | > 100 µM (inactive) | > 100 µM (inactive) | > 100 µM (inactive) | > 100 µM (inactive) | > 100 µM (inactive) |  | 53.7 µM (inactive) | > 100 µM (inactive) |  |  | > 100 µM (inactive) |  |  | 
O=C1CCCC2=C(N1)C(=O)C=CC2=O | 43.8 µM (inactive) | 42.4 µM (inactive) | 10.6 µM (inactive) | 42.5 µM (inactive) | > 53.5 µM (inactive) | 44.4 µM (inactive) | 45 µM (inactive) | 40.6 µM (inactive) | 43 µM (inactive) | > 100 µM (inactive) | 23.1 µM (inactive) | 44.4 µM (inactive) | > 53.2 µM (inactive) | 39.8 µM (inactive) | 43.3 µM (inactive) | 8.61 µM (inactive) | 33.4 µM (inactive) | 18.6 µM (inactive) | 17.5 µM (inactive) | 29 µM (inactive)
c1ccc(C2=NN(c3ccccc3)C3(S2)SC(c2ccccc2)(c2ccccc2)c2ccccc23)cc1 (configuration not stated) | > 100 µM (inactive) | > 100 µM (inactive) | > 100 µM (inactive) | > 100 µM (inactive) | > 100 µM (inactive) | > 100 µM (inactive) |  | > 100 µM (inactive) | > 100 µM (inactive) | > 100 µM (inactive) | > 100 µM (inactive) | > 100 µM (inactive) | > 100 µM (inactive) | > 100 µM (inactive) | > 100 µM (inactive) | 0.804 µM (active) | > 100 µM (inactive) |  |  | 
CC(=O)NNc1nc(C)c(C(=O)/C=C/c2ccccc2Cl)s1 | > 100 µM (inactive) | > 100 µM (inactive) | > 100 µM (inactive) | > 100 µM (inactive) | > 100 µM (inactive) | > 100 µM (inactive) | > 100 µM (inactive) | > 100 µM (inactive) | > 100 µM (inactive) | > 100 µM (inactive) | > 100 µM (inactive) | > 100 µM (inactive) | > 100 µM (inactive) |  | > 100 µM (inactive) | > 100 µM (inactive) | > 100 µM (inactive) |  |  | 
O=c1c2ccccc2c(=O)n2n1-c1cccc(c1)CSSCc1cccc-2c1 | 92 µM (inactive) | > 10 µM (inactive) | > 10 µM (inactive) | 58.3 µM (inactive) | > 100 µM (inactive) | > 10 µM (inactive) | > 100 µM (inactive) | > 10 µM (inactive) | > 10 µM (inactive) | 52.8 µM (inactive) | > 10 µM (inactive) | > 10 µM (inactive) | > 10 µM (inactive) | > 10 µM (inactive) | > 10 µM (inactive) |  | > 10 µM (inactive) |  |  | 
O=C(CC1C(=O)Nc2ccccc2[S+]1[O-])Nc1ccc(Cl)cc1 (configuration not stated) | 35.7 µM (inactive) | > 100 µM (inactive) |  | 39 µM (inactive) | > 100 µM (inactive) | 23.7 µM (inactive) |  | 79.3 µM (inactive) | 41.3 µM (inactive) | 30.1 µM (inactive) | > 100 µM (inactive) | 33.7 µM (inactive) | > 100 µM (inactive) | > 100 µM (inactive) |  | 46.9 µM (inactive) | > 100 µM (inactive) |  |  | 
